Experiments:
GPER [1] = molecular target: T1, GPER (Homo sapiens, UniProt Q99527); experiment: Calcium mobilization antagonism assay in indo1-AM-loaded HL-60 cells (against EC80 of G-1); assay type: cell-based; conditions: Table 3; HL-60 cells endogenously expressing GPER; mean ± SD of three IC50 values from triplicates; read-out: IC50 (nM) of the inhibition of calcium mobilization
T1 construct: HL-60 cells (a human promyelocytic leukemia cell line) which endogenously expresses GPER; host or cells: HL-60
T1 sequence (Q99527 whole entry): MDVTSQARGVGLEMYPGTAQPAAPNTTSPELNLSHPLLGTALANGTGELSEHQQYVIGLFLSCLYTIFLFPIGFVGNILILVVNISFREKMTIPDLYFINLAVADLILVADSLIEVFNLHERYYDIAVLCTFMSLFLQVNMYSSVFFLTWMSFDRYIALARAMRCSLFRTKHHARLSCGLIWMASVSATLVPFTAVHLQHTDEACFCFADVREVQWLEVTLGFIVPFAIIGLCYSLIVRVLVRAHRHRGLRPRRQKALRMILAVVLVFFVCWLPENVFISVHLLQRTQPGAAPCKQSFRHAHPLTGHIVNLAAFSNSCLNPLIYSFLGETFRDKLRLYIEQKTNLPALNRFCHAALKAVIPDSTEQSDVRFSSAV
Protocol: Human Myelocytic Leukemia (HL-60) cells were grown in phenol red free media containing 10% […] fetal bovine serum (FBS), 1% Pen-Strep, and 1% Glutamax. Cells were grown to no more than 1×10^6 cells/mL to prevent differentiation before being split. Prior to assay cells were transferred to phenol red free media containing charcoal-stripped FBS. On the day of the assay cells were centrifuged down at 16.4 G for 5 minutes and washed with 50:1 HBSS/HEPES. Cells were resuspended at 1×10^7 cells/mL in 50:1 HBSS/HEPES. To the resuspended cells, 0.05% pluronic acid and 5 uM of fluorescent calcium indicator, Indo-1AM, were added. The dye solution was incubated for 0.5 hrs at room temperature with rocking. After 30 minutes cells were spun down, and resuspended in 50:1 HBSS/HEPES. Cells were placed on ice for at least 5 minutes and then resuspended in 8.5 mL of 50:1 HBSS/HEPES (containing probenacid) for agonism assays or 6.5 mL of 50:1 HBSS/HEPES (containing probenacid) for antagonism assays. For agonism assays 160 μL of cell suspension were added to a 96-well plate and were incubated at 37° for 10 minutes in a FlexStation® 3 plate reader (Molecular Devices). Inside the plate reader, 40 μL of agonist were added to each well and excited with 350 nm and read at emissions of 405 nm and 490 nm. For antagonist assays, 120 μL of cell suspension were added to a 96-well plate. In addition to the cell suspension 40 μL of antagonist were added to the wells. Cells with antagonists were incubated at 37° for 15 minutes in FlexStation® 3 plate reader (Molecular Devices). Inside the plate reader, 40 μL of agonist at the EC80 were added to each well and excited with 350 nm and read at emissions of 405 nm and 490 nm.
In vitro biological evaluation using calcium mobilization. HL-60 cells were grown in 10% charcoal-stripped RPMI 72 hours before assays were performed. Cells were centrifuged and counted with a hemocytometer from Hausser Scientific (Bedford, Mass.). The assay required 100,000 cells per well, for a total number of cells on a 96-well plate assay of about 1×10 (Matthews and Gustafsson, 2003). HL-60 cells (1×10 (Matthews and Gustafsson, 2003)) were incubated in 50:1 Hanks balanced salt solution (Millipore Sigma, Saint Louis, Mo. and HEPES (Gibco by Life Technologies, Gaithersburg, Md.) containing 5 μM indo1-AM (Thermo Fischer Scientific, Waltham, Mass.) and 0.05% pluronic acid (AAT Bioquest Inc., Sunnyvale, Calif.) for 0.5 h at RT. Cells were spun down and washed with 50:1 HBSS/HEPES, and resuspended in media. Resuspension was placed on ice for no longer than 5 mins. Cells were loaded into plate at 100,000 cells/well. For agonist cells were immediately incubated for 15 mins at 37° C. Following the 15 mins incubation FlexStation 3 Multimode Plate Reader (Molecular Devices, Sunnyvale, Calif.) added the appropriate amount of agonist and was read for 150 seconds at 37° C. For antagonists once the cells were seeded, antagonist was added and incubated for 15 mins at 37° C. After 15 mins of equilibration, the EC80 of G-1 was added by the FlexStation and read for 150 secs at 37° C. Calcium mobilization was determined ratiometrically using λex 350 nm and λem 405/490 nm.

ERα = molecular target: T2, ERα (Homo sapiens, UniProt P03372); experiment: ERα PolarScreen fluorescence polarization competitor assay; assay type: binding
T2 construct: purchased Invitrogen (Carlsbad, Calif.)
T2 sequence (P03372 1-595): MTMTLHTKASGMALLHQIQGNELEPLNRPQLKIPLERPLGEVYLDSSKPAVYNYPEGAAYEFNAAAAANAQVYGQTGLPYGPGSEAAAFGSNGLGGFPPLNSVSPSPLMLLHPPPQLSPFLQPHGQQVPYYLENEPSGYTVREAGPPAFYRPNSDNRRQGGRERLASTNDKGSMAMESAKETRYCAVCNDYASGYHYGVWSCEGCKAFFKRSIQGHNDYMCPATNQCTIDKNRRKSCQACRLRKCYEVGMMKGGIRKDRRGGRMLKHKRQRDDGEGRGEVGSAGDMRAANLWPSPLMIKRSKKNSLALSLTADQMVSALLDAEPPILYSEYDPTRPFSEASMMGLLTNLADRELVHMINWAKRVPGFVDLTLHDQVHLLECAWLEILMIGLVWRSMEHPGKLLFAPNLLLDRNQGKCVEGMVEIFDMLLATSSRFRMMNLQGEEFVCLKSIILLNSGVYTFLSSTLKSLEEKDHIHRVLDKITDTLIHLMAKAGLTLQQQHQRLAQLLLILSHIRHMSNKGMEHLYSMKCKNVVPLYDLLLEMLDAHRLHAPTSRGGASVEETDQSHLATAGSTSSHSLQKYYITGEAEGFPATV
Protocol: (§1) ERα and ERβ Fluorescence Polarization Assay. The ERα and ERβ PolarScreen™ Competitor Assays by Invitrogen (Carlsbad, Calif.) were purchased. The concentrations of the ERα and ERβ enzyme varied between the two assays. A 4× sample of ERα was prepared for a final concentration of 75 nM. Conversely, a 4× sample of ERβ was prepared for a final concentration of 23 nM within the assay. For both ERα and ERβ a 4× aliquot of Fluoromone was prepared for a final assay concentration of 4.5 nM. Despite the differences in concentration of ERα and ERβ, the binding assay protocol for the two different enzymes remained the same. Drug dilutions were prepared for a 2× dilution in the ER specific buffer that was provided within the assay kit. In addition to the drug dilutions a 2× aliquot of Fluoromone was prepared by adding 10 μL of 4× with 10 μL of ER specific buffer. A 2× dilution of enzyme and fluorophore was achieved by adding equal portions of each to each other. To a black 384-plate well plate, 10 μL of compound were added to the wells followed by 10 μL of the 2× mixture of enzyme and fluoromone. Two controls were included in the plate design. In one control, enzyme and compound were omitted so that only ER specific buffer and fluoromone remained. A separate control contained the enzyme and fluoromone control. […] The plate was incubated at RT for 2 hours before being read with λex 485 nm and λem 535 nm.

GPER [2] = molecular target: T1, GPER; experiment: cAMP HTRF antagonism assay (G-1 induced inhibition of adenylate cyclase) in HL-60 cells; assay type: cell-based
Protocol: In vitro cAMP biological evaluation. A homogeneous time resolved fluorescence (HTRF®) components for cAMP was purchased by CisBio (Bedford, Mass.). HL-60 cells were grown in 10% charcoal-stripped RPMI media for 72 hours prior to assays. Cells were centrifuged and counted with a hemocytometer from Hausser Scientific (Horsham, Pa.). The total number of cells needed to complete the assay was determined based upon 8,000 cells/well. The determined number of cells was diluted in 5:1 (5×) stimulation buffer contain 500 μM of 3-isobutyl-1-methylxanthine (IBMX) (Sigma Aldrich, Saint Louis, Mo.). To an HTRF 96-well low volume white plate from CisBio, 5 μL of cold cell suspension was added to each plate, followed by 4 μL of (2.5×) of agonist or stimulation buffer (negative control and non-stimulated cells). Cells were covered with a clear plastic film and incubated at 37° C. for 15 mins in an incubator. After 15 mins cell 1 μL of 10 μM (10×) forskolin was added to each well. The plate was once again sealed and incubated at 37° C. for 15 mins. After 15 mins 5 μL of cAMP-d2 (acceptor) was added to all wells, including controls. Conversely, 5 μL of monoclonal anti-cAMP Eu3^+ cryptate (donor) was added to only the wells with test compound and non-stimulated cells. Following addition, the plate was sealed, covered with aluminum foil, and incubated at room temperature for 30 mins. After the allotted time cells were read using Flexstation3 and with λex 314 nm and λem 665 nm. For an antagonism platform the procedure was slightly altered. The EC80 of G-1 was recalculated based upon cAMP agonism results. To the plate, 2 μL of (5×) antagonist were added dose wise followed by the addition of 5 μL of cold cell suspension to all wells (top and bottom well were designated as G-1 control and forskolin control, respectively). Cells and antagonists were incubated for 15 mins at 37° C. After 15 mins, 2 μL of the (5×) EC80 of G-1 was added to wells with antagonist. […] Cells were allowed to equilibrate at room temperature for 30 minutes before being read at λex 314 nm and λem 665 nm.

ERβ = molecular target: T3, ERβ (Homo sapiens, UniProt Q92731); experiment: ERβ PolarScreen fluorescence polarization competitor assay; assay type: binding; conditions: below 10 μM
T3 construct: purchased Invitrogen (Carlsbad, Calif.)
T3 sequence (Q92731 whole entry): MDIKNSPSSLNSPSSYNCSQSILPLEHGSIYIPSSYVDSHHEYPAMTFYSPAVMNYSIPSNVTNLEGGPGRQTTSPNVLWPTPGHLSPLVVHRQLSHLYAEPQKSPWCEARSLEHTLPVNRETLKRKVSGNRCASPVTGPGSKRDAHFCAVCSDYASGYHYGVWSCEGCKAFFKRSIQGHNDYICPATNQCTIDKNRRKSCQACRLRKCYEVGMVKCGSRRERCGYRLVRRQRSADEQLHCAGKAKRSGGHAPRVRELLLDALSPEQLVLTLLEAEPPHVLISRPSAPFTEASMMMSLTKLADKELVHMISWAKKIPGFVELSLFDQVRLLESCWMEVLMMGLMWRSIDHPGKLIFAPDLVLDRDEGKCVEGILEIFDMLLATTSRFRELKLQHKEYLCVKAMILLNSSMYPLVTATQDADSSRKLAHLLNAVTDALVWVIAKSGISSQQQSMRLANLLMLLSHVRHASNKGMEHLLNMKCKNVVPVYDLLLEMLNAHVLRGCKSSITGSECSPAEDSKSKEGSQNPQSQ
Protocol: as §1

Compound CC(C)c1ccc(NCc2ccc3ccccc3c2)c(C2CCCCC2)c1 [Compound 5] has an IC50 (GPER [1]) of 260 ± 110 nM.

CC(C)(C)c1ccc(NCc2ccc(-c3ccccc3)cc2)c(C2CCCCC2)c1 [Compound 20] gave an IC50 (GPER [1]) of 132 ± 145 nM.

With Cc1ccc(CNc2ccc(C(C)(C)C)cc2C2CCCCC2)cc1 [Compound 21] the ERα binding (ERα; 10 μM (highest concentration)) was “a low level of binding”, the ERα binding (ERα; below 10 μM) was “do not exhibit binding” and the “Antagonism of G-1 induced inhibition of adenylate cyclase” value (GPER [2]; 100 nM) was “also observed, less so”. For the same compound, the “Antagonism of G-1 induced inhibition of adenylate cyclase” value (GPER [2]; 1 μM exposure) was “caused a decrease in adenylate cyclase inhibition”, the “Reduction of G-1 induced inhibition of cAMP formation / adenylate cyclase” value (GPER [2]; EC80 of G-1, 1 μM forskolin, concentration not given) was “able to decrease inhibition of adenylate cyclase” and the ERβ binding (ERβ) was “do not exhibit binding”. For the same compound, the IC50 (GPER [1]) was 60.8 ± 18 nM.

For COc1ccc(CNc2ccc(C(C)(C)C)cc2C2CCCCC2)cc1 [Compound 22], the IC50 (GPER [1]) was 874 ± 49 nM.

In the case of CC(C)(C)c1ccc(NCc2ccccc2)c(C2CCCCC2)c1 [Compound 23], the IC50 (GPER [1]) is reported as 331 ± 160 nM.

Compound CC(C)(C)c1ccc(NCc2ccc(Cl)cc2)c(C2CCCCC2)c1 [Compound 24] has an IC50 (GPER [1]) of 141 ± 14 nM.

CC(C)(C)c1ccc(NCc2ccc(Cl)c(Cl)c2)c(C2CCCCC2)c1 [Compound 25] showed an IC50 (GPER [1]) of 657 ± 94 nM.
